Legend:
[1] = biological target: T1, Thromboxane A2 receptor (Rattus norvegicus, UniProt P34978); test: Tested for antagonistic activity on isolated rat thoracic aorta (thromboxane A2 receptor) precontracted by U-46619 (3 x 10 e-8 M); assay type: functional, tissue-based
T1 sequence (P34978 whole entry): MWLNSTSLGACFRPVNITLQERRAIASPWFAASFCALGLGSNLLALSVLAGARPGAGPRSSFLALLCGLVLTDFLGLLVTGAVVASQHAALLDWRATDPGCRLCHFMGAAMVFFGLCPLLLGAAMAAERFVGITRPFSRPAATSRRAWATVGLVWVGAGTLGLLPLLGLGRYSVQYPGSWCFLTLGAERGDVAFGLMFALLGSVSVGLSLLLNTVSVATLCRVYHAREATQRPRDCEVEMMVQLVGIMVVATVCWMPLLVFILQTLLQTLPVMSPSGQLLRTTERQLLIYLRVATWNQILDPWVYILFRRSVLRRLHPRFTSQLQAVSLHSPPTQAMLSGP

[2] = species on record: Oryctolagus cuniculus; test: Tested for 50% maximal aggregation of rabbit platelet-rich plasma induced by 4 x 10 e-6 M U-46619; assay type: functional
[3] = biological target: T1, Thromboxane A2 receptor; test: Tested for antagonistic activity on isolated rat thoracic aorta (TXA2 receptor) precontracted by U-46619 (3 x 10 e-8 M); assay type: functional, tissue-based

SMILES	IC50 [1] [µM]	IC50 [2] [µM]	IC50 [3] [µM]
CC(C)c1ccc2c(CCCCNS(=O)(=O)c3ccc(Cl)cc3)cc(S(=O)(=O)O)c-2cc1	0.0009		
CC(C)c1ccc2c(CCC/C=N/N=C(\S)Nc3ccc(Cl)cc3)cc(C(=O)O)c-2cc1	> 100		
CC(C)c1ccc2c(CCCCS(=O)(=O)Nc3ccc(Cl)cc3)cc(S(=O)(=O)O)c-2cc1	0.22	> 1000	
CC(C)c1ccc2c(CCCS(=O)(=O)Nc3ccc(Cl)cc3)cc(S(=O)(=O)O)c-2cc1	0.86		
CC(C)c1ccc2c(CNC(=O)CNS(=O)(=O)c3ccccc3)cc(C(=O)O)c-2cc1	> 100	> 1000	
CC(C)c1ccc2c(CNC(=O)CNC(=O)c3ccc(Cl)cc3)cc(C(=O)O)c-2cc1	> 100		
CC(C)c1ccc2c(CCCC(=O)NS(=O)(=O)c3ccc(Cl)cc3)cc(C(=O)O)c-2cc1	19	> 1000	
CC(C)c1ccc2c(CCCCCS(=O)(=O)Nc3ccc(Cl)cc3)cc(S(=O)(=O)O)c-2cc1	0.86		
CC(C)c1ccc2c(CCCCCS(=O)(=O)Nc3ccccc3)cc(S(=O)(=O)O)c-2cc1	1.4		
CC(C)c1ccc2c(CCC/C=N/N=C(\S)Nc3ccccc3)cc(C(=O)O)c-2cc1	590	> 1000	
CC(C)c1ccc2c(CCCS(=O)(=O)Nc3ccc(Cl)cc3)cc(C(=O)O)c-2cc1	9.1		
CC(C)c1ccc2c(CCCCCS(=O)(=O)Nc3ccc(Cl)cc3)cc(C(=O)O)c-2cc1	1.7		
CC(C)c1ccc2c(CCCCS(=O)(=O)Nc3ccccc3)cc(S(=O)(=O)O)c-2cc1	1.5		
O=C(O)COc1ccc(CCNS(=O)(=O)c2ccccc2)cc1 [SULOTROBAN]	1.5		

The remaining lines, values ahead:

IC50 [1] [µM]	IC50 [2] [µM]	IC50 [3] [µM]	SMILES
> 100			CC(C)c1ccc2c(CCC/C=N/NC(=O)Nc3ccc(Cl)cc3)cc(C(=O)O)c-2cc1
1.5			CC(C)c1ccc2c(CCCCCS(=O)(=O)Nc3ccccc3)cc(C(=O)O)c-2cc1
> 100	> 1000		CC(C)c1ccc2c(CCC/C=N\NC(=O)Nc3ccccc3)cc(C(=O)O)c-2cc1
	> 1000	> 100	CC(C)c1ccc2c(CNC(=O)CNC(=O)c3ccccc3)cc(C(=O)O)c-2cc1
2.6	> 1000		CC(C)c1ccc2c(CCCCS(=O)(=O)Nc3ccc(Cl)cc3)cc(C(=O)O)c-2cc1
54	56		CC(C)c1ccc2c(CCCC(=O)NS(=O)(=O)c3ccc(Cl)cc3)cc(S(=O)(=O)O)c-2cc1
> 100			CC(C)c1ccc2c(CCCC(=O)NS(=O)(=O)c3ccccc3)cc(C(=O)O)c-2cc1
8.7			CC(C)c1ccc2c(CCCCS(=O)(=O)Nc3ccccc3)cc(C(=O)O)c-2cc1
> 100			CC(C)c1ccc2c(CNC(=O)CNS(=O)(=O)c3ccc(Cl)cc3)cc(C(=O)O)c-2cc1
65			CC(C)c1ccc2c(CCCC(=O)NS(=O)(=O)c3ccccc3)cc(S(=O)(=O)O)c-2cc1
8.7			CC(C)c1ccc2c(CCCS(=O)(=O)Nc3ccccc3)cc(S(=O)(=O)O)c-2cc1
12			CC(C)c1ccc2c(CCCS(=O)(=O)Nc3ccccc3)cc(C(=O)O)c-2cc1
